In article PMC10703812, “Understanding the molecular mechanisms of odorant binding and activation of the human OR52 family” (Nature Communications, 2023):
Several values for one entry are separate records, joined by “and”; a condition that tells them apart may be missing. Identical values can stand only once.

Assays:
Assay type in all cases: cell-based, human
[1] = test system: OR52cs R265A; assay: CRE luciferase assay in Hana3A cells, mutant; settings: 100 µM carboxylic acid; Fig.S7a, single experiments
Method: (§1) For cAMP assay, CRE luciferase assay, and surface ELISA, the full-length OR52cs construct was cloned into the pcDNA3.1 vector. The Lucy signal sequence and FLAG peptide sequence were added to the N-terminus. Mutant constructs were generated by site-directed mutagenesis. For BRET assay, eYFP was added at the C-terminus of OR52cs with a GGGGS linker. Rluc was added to Gα for resonance partner (after L99 for Gαs, and I100 for Gαolf, respectively, with GGGGS linker back and forth).
48 h after infection, cells were treated with odorants and incubated at 37 °C for 4 h. […] All values were divided by the Renilla luciferase activity to normalize the effect of cell confluence. All data were analyzed using GraphPad Prism 9.4.1.

[2] = test system: OR52cs / Gαs; assay: BRET assay, G protein recruitment to OR52cs; settings: 500 µM OCA; Gαs-Rluc; Fig.S2a, single experiments; listed as OCA
Method: as §1
(§2) All signaling assays were performed in Hana3A cells, which were kindly provided by Dr. Matsunami. Cells were seeded on 6-well clear plate (SPL) and co-transfected with OR52cs-eYFP, Gαs-Rluc or Gαolf-Rluc, Gβ1 and Gγ2 at a 5:1:1:1 ratio. 48 h after infection, cells were collected and resuspended with PBS. 500 μM of OCA was treated to the cells, and cells were transferred to 96-well white microplate (SPL). Coelenterazine H (Nanolight) was added to each well at a final concentration of 10 μM and luminescence was measured using a Tristar 2 LB 942 multimode reader (Berthold). Data were analyzed using GraphPad Prism 9.4.1.

[3] = test system: OR52cs / Gαolf; assay: BRET assay, G protein recruitment to OR52cs; settings: 500 µM OCA; Gαolf-Rluc; Fig.S2a, single experiments; listed as OCA
Method: as §1, §2

[4] = test system: OR52cs-bRIL-ICL3; assay: cAMP signaling assay, bRIL chimera; design: cAMP response: scale not given here; settings: for cAMP response: Fig.S11a source data
Excerpt: For the structural study of apo state OR52cs, the chimeric construct of full-length OR52cs (1–313)[23] was designed to insert bRIL between A226 and L227 with a linker sequence derived from adenosine receptor A2a, as previously described. For purification of active state OR52cs, full-length OR52cs (1–313) was used. Each construct was subcloned into the pFastBac HT B vector with a Lucy signal sequence ([…])[17] and FLAG peptide at the N-terminus. Each construct also included an eGFP with 10xHis-tag, which was fused to the C-terminus of OR52cs with a HRV 3C protease cleavage sequence.
(§3) Hana3A cells were seeded on 96-well white microplates and transfected with OR52cs or the corresponding mutants and cAMP sensor (Promega). The medium was exchanged with CO2-independent medium (Gibco) supplemented with 0.375 mg ml^−1 D-luciferin (Nanolight) 48 h after infection, and cells were incubated in the dark at 20 °C for 2 h. Basal luminescence was detected using a Tristar 2 LB 942 multimode reader (Berthold) until it reached a plateau. Subsequently, various concentrations of odorants and forskolin (Sigma-Aldrich) were added to each well, and luminescence was measured again. Data were analyzed and plotted using GraphPad Prism 9.4.1.

[5] = test system: OR52cs H183A; assay: cAMP signaling assay, mutant; settings: for cAMP response: Fig.3d source data, single experiments
Method: as §1, §3

[6] = test system: OR52cs V158F/V209M; assay: cAMP signaling assay, mutant; settings: for cAMP response: Fig.S8b source data, single experiments
Method: as §1, §3

[7] = test system: OR52cs V158F; assay: cAMP signaling assay, mutant; settings: for cAMP response: Fig.S8b source data, single experiments
Method: as §1, §3

[8] = test system: OR52cs G201V; assay: cAMP signaling assay, mutant; settings: Fig. 3d
Method: as §1, §3

[9] = test system: OR52cs H107A; assay: cAMP signaling assay, mutant
Method: as §1, §3

[10] = test system: OR52cs R265A; assay: cAMP signaling assay, mutant
Method: as §1, §3

[11] = test system: OR52cs F14A / F96A / F170A; assay: cAMP signaling assay, mutant
Method: as §1, §3

[12] = test system: OR52cs Y282A; assay: cAMP signaling assay, mutant; settings: odorant 0.001 M; Fig.S13b source data, single experiments
Method: as §1, §3

[13] = test system: OR52cs; assay: cAMP signaling assay (cAMP sensor) in Hana3A cells
Method: as §1, with “forth). […]” for “forth).”
as §3

[14] = odorant 0.001 M (1 mM OCA), Fig.S11a left, single experiments, listed as Octanotae

With CCCCCCCC(=O)O [Octanoate, octanoic acid] the “relative fold (luciferase activity over DMSO)” value [1] was 1.143 fold and 0.8826 fold and 1.532 fold and 1.19 fold, the “ΔBRET (OCA- minus vehicle-treated BRET signal)” value [2] was 0.0184 and 0.01592 and 0.01247 and 0.01013 and 0.01218 and the “ΔBRET (OCA- minus vehicle-treated BRET signal)” value [3] was 0.01011 and 0.01399 and 0.007869 and 0.00957 and 0.01164. The “OCA-induced activity (in words)” value ([4]; Supplementary Fig. 11) was “neither basal activity nor OCA-induced activity”, the cAMP response ([4]; odorant 9.18274e-8 M, single experiments) was 2.864 and 3.4309 and 3.889 and 3.292 and the cAMP response ([4]; odorant 9.18274e-7 M, single experiments) was 3.793 and 3.523 and 3.621 and 3.789. For the same compound, the cAMP response ([4]; odorant 9.18274e-6 M, single experiments) was 3.871 and 2.869 and 3.568 and 3.2862, the cAMP response ([4]; odorant 3.0303e-5 M, single experiments) was 3.732 and 3.68 and 3.466 and 3.76 and the cAMP response ([4]; odorant 0.0001 M, single experiments) was 4.827 and 3.799 and 4.225 and 4.217. For the same compound, the “cAMP response (raw signal) upon OCA treatment” value [4, 14] was 8475 and 9202 and 7849 and 10195, the cAMP response ([4]; odorant 0.001 M, single experiments) was 5.645 and 5.075 and 5.021 and 7.052 and the EC50 ([5]; Supplementary Table 3, N=3) was 41.4 µM. For the same compound, the “pEC50 ± SEM” value ([5]; Supplementary Table 3, N=3) was 4.154 ± 0.087, the cAMP response ([5]; odorant 0.0001 M) was 48.2985 and 50.8568 and 78.4687 and the cAMP response ([5]; odorant 0.001 M) was 61.0348 and 75.0061 and 91.5473. For the same compound, the “response / preference (in words)” value ([6]; Supplementary Fig. 8) was “preference for OCA was maintained”, the cAMP response ([6]; odorant 9.18274e-8 M) was 1.119% and 0.2182% and 0.3359% and 1.739% and the cAMP response ([6]; odorant 9.18274e-7 M) was 6.95% and 4.269% and 3.744% and 7.839% and 6.948%. For the same compound, the cAMP response ([6]; odorant 9.18274e-6 M) was 37.3813% and 30.814% and 31.4615% and 45.1116% and 40.3488%, the cAMP response ([6]; odorant 3.0303e-5 M) was 96.8852% and 89.0601% and 97.4121% and 90.3953% and 94.2682% and the cAMP response ([6]; odorant 0.0001 M) was 87.6893% and 101.186% and 102.533% and 86.5504% and 88.6049%. For the same compound, the cAMP response ([6]; odorant 0.001 M) was 79.2271% and 94.3185% and 104.414% and 103.193% and 74.9407%, the “downstream signal / selectivity (in words)” value ([7]; Supplementary Fig. 8) was “greatly reduced the downstream signal” and the cAMP response ([7]; odorant 9.18274e-8 M) was -0.2745% and -0.4519% and -0.2741%. The cAMP response ([7]; odorant 9.18274e-7 M) was -1.206% and -1.168% and -3.0916%, the cAMP response ([7]; odorant 9.18274e-6 M) was 1.8013% and 0.5178% and -1.853% and the cAMP response ([7]; odorant 3.0303e-5 M) was 11.8948% and 7.17% and 7.559%. For the same compound, the cAMP response ([7]; odorant 0.0001 M) was 32.9355% and 23.3075% and 28.8455%, the cAMP response ([7]; odorant 0.001 M) was 85.6572% and 61.8428% and 79.0275% and the “downstream signaling (in words)” value [8] was “loss of OCA signaling”. For the same compound, the “downstream signaling (in words)” value ([9]; Fig. 3d) was “significantly reduced downstream signaling”, the “X-fold over OR52cs (relative fold of EC50)” value ([9]; Supplementary Table 3) was 23.7 and the EC50 ([9]; Supplementary Table 3, N=3) was 187 µM. For the same compound, the cAMP response ([9]; odorant 9.18274e-7 M, Fig.3d source data, single experiments) was 2.018 and 1.83 and 1.279, the “downstream signaling (in words)” value ([10]; Fig. 3d) was “complete loss of downstream signaling” and the cAMP response ([10]; odorant 9.18274e-6 M, Fig.3d source data, single experiments) was 1.026 and 1.808. The “cAMP response (in words)” value ([11]; Fig. 2c) was “significantly reduced cAMP response”, the “X-fold over OR52cs (relative fold of EC50)” value ([11]; Supplementary Table 3) was 26.3 and the EC50 ([11]; Supplementary Table 3, N=3) was 208 µM. The cAMP response [12] was 0.7944 and 0.7429 and 0.9514, the EC50 ([13]; Supplementary Fig. 13b) was 7 µM and the “X-fold over OR52cs (relative fold of EC50)” value ([13]; Supplementary Table 3) was 1. The EC50 ([13]; Supplementary Table 3, N=5) was 7.9 µM, the “pEC50 ± SEM” value ([13]; Supplementary Table 3, N=5) was 5.230 ± 0.107 and the cAMP response ([13]; odorant 9.18274e-8 M, Fig.S11a source data, single experiments) was 5.085 and 3.831 and 4.775 and 5.026. For the same compound, the cAMP response ([13]; odorant 9.18274e-7 M, Fig.S11a source data, single experiments) was 14.274 and 13.5525 and 12.3756 and 13.817, the cAMP response ([13]; odorant 9.18274e-6 M, Fig.S11a source data, single experiments) was 55.4145 and 67.6331 and 64.1017 and 55.2862 and the cAMP response ([13]; odorant 3.0303e-5 M, Fig.S11a source data, single experiments) was 86.9919 and 78.2813 and 84.5166 and 65.845. For the same compound, the cAMP response ([13]; odorant 0.0001 M, Fig.1a source data, single experiments) was 127.982 and 109.844 and 107.02 and 115.524 and 104.582, the cAMP response ([13]; odorant 0.0001 M, Fig.S11a source data, single experiments) was 98.5501 and 101.54 and 117.496 and 98.6522 and the “cAMP response (raw signal) upon OCA treatment” value [13, 14] was 146668 and 160587 and 152997 and 131980. The cAMP response ([13]; odorant 0.001 M, Fig.1a source data, single experiments) was 103.349 and 98.3823 and 101.697 and 99.3544 and 97.2175 and the cAMP response ([13]; odorant 0.001 M, Fig.S11a source data, single experiments) was 95.2215 and 104.803 and 111.594 and 89.2504.
